# Legend:
# A549 cells = assay: Palmitate-driven respiration in intact A549 cells (Seahorse); type: cell-based; conditions: intact A549, albumin-buffered palmitate
# Method: (§1) All respirometry studies were conducted in either a Seahorse XF96 or XFe96 Analyzer. All experiments were conducted at 37° C., and at pH 7.4 (intact cells) or 7.2 (permeabilized cells and isolated mitochondria). Calculation of respiratory parameters was made according to standard protocols (Divakaruni, A. S., Paradyse, A., Ferrick, D. A., Murphy, A. N., and Jastroch, M. (2014a) Analysis and interpretation of microplate-based oxygen consumption and pH data. Meth. Enzym 547, 509-54), and all rates were corrected for non-mitochondrial respiration/background signal by subtracting the oxygen consumption rate insensitive to rotenone plus antimycin A.
# Palmitate oxidation in intact cells (FIG. 1A, FIG. 1B) was assessed by measuring palmitate-driven respiration that was sensitive to low concentrations of etomoxir (Rogers, G. W., Nadanaciva, S., Swiss, R., Divakaruni, A. S., and Will, Y. (2014) Assessment of fatty acid beta oxidation in cells and isolated mitochondria. Curr. Protoc. Toxicol. 60, 25.3, 1-19). […] Respiration was measured under basal conditions as well as after injection of 2 μM oligomycin, two sequential additions of 1 μM FCCP, followed by 0.2 μM rotenone with 1 μM antimycin A. Etomoxir was added to the assay medium 30 min. prior to measurements of basal respiratory rates.
# [1] = system: A549, HCT116, cortical neurons, cortical astrocytes, BMDM, NRVM; assay: Respiration in intact cells offered glucose, glutamine, pyruvate (six cell types); type: cell-based
# Method: as §1
# When diagnosing an off-target effect of etomoxir (FIG. 5A, FIG. 5B, FIG. 5C), all cells apart from primary neurons were offered 8 mM glucose, 2 mM glutamine, and 2 mM pyruvate in unbuffered DMEM supplemented with 5 mM HEPES. […] Respiration in all intact cells was measured in the basal state as well as in response to 2 μM oligomycin, FCCP (either 400 nM, 800 nM or 1.2 μM as appropriate and previously optimized), and 0.2 μM rotenone with 1 μM antimycin A. Etomoxir (at concentrations indicated in the text), UK5099 (3 μM), or BPTES (3 μM) were added to the assay medium 30 min prior to measurements.
# [2] = system: permeabilized HepG2 or A549 cells; assay: ADP- vs FCCP-stimulated respiration in permeabilized cells, etomoxir added directly; type: cell-based; conditions: high concentrations of etomoxir
# [3] = system: adenine nucleotide translocase (ANT); assay: ATP hydrolysis in isolated mitochondria, intact or alamethicin-permeabilized; type: biochemical, rat
# Source text: ATP hydrolysis in isolated mitochondria (McQuaker, S. J., Quinlan, C. L., Caldwell, S. T., Brand, M. D., and Hartley, R. C. (2013). A prototypical small molecule modulator uncouples mitochondria in response to endogenous hydrogen peroxide production. Chembiochem. 14, 993-1000; Divakaruni, A. S., Andreyev, A. Y., Rogers, G. W., and Murphy, A. N. (2017a) In situ measurements of mitochondrial matrix enzyme activities using plasma and mitochondrial membrane permeabilization agents. Anal. Biochem. 17, 30385-8) was performed in MAS buffer, and stimulated by respiratory chain inhibition (1 μM rotenone and 2 μM antimycin A) followed by addition of excess ATP (25 mM) and uncoupler (1 μM FCCP). Hydrolysis was inhibited by injection of either oligomycin (3 ng/mg mitochondrial protein) or carboxyatractylo side (7.5 ng/mg mitochondrial protein). Rates of extracellular acidification (ECAR, in mpH/min) were converted to proton production rates (PPR, in pmol H+/min) by determining the buffer capacity with sequential injections of HCl and H2SO4 (Mookerjee, S. A., Goncalves, R. L., Gerencser, A. A., Nicholls, D. G., and Brand, M. D. (2015). The contributions of respiration and glycolysis to extracellular acid production. Biochim et Biophys Acta. 1847, 171-81). 10 μg/mL alamethicin was used to permeabilize the mitochondrial inner membrane (1 μg/mg mitochondrial protein).
# BMDMs [4] = assay: ADP- or FCCP-stimulated respiration in permeabilized WT, Cpt1a-/- and Cpt2-/- BMDMs; type: cell-based, mouse; conditions: 200 μM etomoxir; independent of CPT-1 activity; also stated for Treg cells
# BMDMs [5] = assay: Intracellular free coenzyme A levels in BMDMs; type: cell-based, mouse; conditions: 200 μM etomoxir, IL-4, 20 hr
# Method: On Day 6 of differentiation, BMDMs were seeded at 1.2×10^6 cells/well in 6-well plates. 24 hr later, BMDMs were mock-treated or co-treated with 20 ng/mL IL-4±200 μM etomoxir±500 μM CoA in DMEM supplemented with 5% FBS, 2 mM L-glutamine, 100 units/mL, […] penicillin/streptomycin, 500 μM of sodium pyruvate and 5% v/v conditioned media containing macrophage colony stimulating factor (M-CSF) for 20 hr. Prior to sample collections, cells were washed with 600 μL of 0.9% (w/v) NaCl twice. Three wells per replicate per treatment were combined in 2 mL centrifuge tubes and centrifuged at 500 g for 5 mins at 4° C. The supernatant was removed, and the cell pellet was re-suspended in 75 μL of ice-cold 0.7% (v/v) perchloric acid for 5 min. Samples were then centrifuged at 10,000 g for 7 mins at 4° C. and the resulting supernatant was adjusted to pH 7 with 2M NaOH and 500 mM K2HPO4. The coenzyme A concentration was determined with Coenzyme A Assay Kit following manufacturer's instructions (Sigma MAK034) using 40 μL of sample supernatant. Coenzyme A levels were normalized to total cellular protein (BCA method).
structure (smiles),measurement,setting,value
CCOC(=O)[C@@]1(CCCCCCOc2ccc(Cl)cc2)CO1 [etomoxir],half-maximal inhibitory concentration (EC50) for uncoupler-stimulated respiration,A549 cells,sub-micromolar
same,maximal respiratory rate,"[1]; 3 μM etomoxir, no fatty acids or carnitine",did not inhibit respiration
same,ATP-linked vs uncoupler-stimulated respiration,"[1]; increasing, high concentrations of etomoxir",disproportionately inhibited ATP-linked respiration relative to uncoupler-stimulated respiration
same,respiration driven by ADP versus FCCP,[2],greater inhibitory effect on respiration driven by ADP versus FCCP
same,ATP hydrolysis,[3]; alamethicin-permeabilized mitochondria,no effect
same,ATP hydrolysis,"[3]; intact isolated mitochondria, etomoxir 100 μM, CAT 7.5 ng/mg, oligomycin 3 ng/mg",inhibited ATP hydrolysis
same,phosphorylating and uncoupled respiration,BMDMs [4],pronounced off-target effect on phosphorylating respiration with a secondary effect at uncoupled respiration
same,intracellular free CoA levels,BMDMs [5],significantly dropped

# Source: patent US11813277B2, “Methods and agents for modulating inflammation” (The Regents of the University of California, priority 2018, dated 2023)
